Assay results as given in PMC9860980, “Pharmacokinetics and Pharmacodynamics (PK/PD) of Corallopyronin A against Methicillin-Resistant Staphylococcus aureus” (Pharmaceutics, 2022).

Tests used:
MRSA = conditions: against MRSA; cited from earlier work
[1] = Biodistribution of CorA to organs/tissues of CD-1 mice (LC-MS/MS); type: in vivo
Protocol: For pharmacokinetic (PK) experiments, 6–8-week-old outbred female CD-1 mice (Charles River, Germany) were used. CorA was dissolved in PEG400/phosphate-buffered saline (PBS) (80:20 (v/v)). CorA was administered once daily at 60 mg/kg intraperitoneally (IP), 100 mg/kg IP, 100 mg/kg subcutaneously (SC) and 100 mg/kg perorally (PO). Moreover, CorA was administered at 30 mg/kg IP twice a day (BID) (administration time points t = 0 and 6 h after first dose). Animals (n = 3 per time point) receiving either 60 mg/kg IP or 100 mg/kg IP were euthanized at 10, 15, 30, 60 and 180 min after administration. Animals (n = 3 per time point) receiving 30 mg/kg IP BID were euthanized at 0.167, 0.25, 0.5, 1, 3, 5.75, 6.167, 6.25, 6.5, 7 and 9 h after first administration. Animals (n = 3 per time point) receiving 100 mg/kg SC or 100 mg/kg PO were euthanized at 0.25, 1, 2, 4 and 8 h after administration. At every time point blood was removed from the heart, collected into tubes coated with 0.5 M ethylenediaminetetraacetic acid (EDTA), immediately spun down at 15,870× g for 10 min at 4 °C and the resultant plasma transferred into a new tube. Furthermore, at every time point heart, lung, brain, liver, spleen, kidneys, and thigh muscles were removed and frozen in liquid nitrogen. For animals receiving 100 mg/kg PO also rectum (without feces), pharynx, skin, vaginal tract, subcutaneous fat tissue, visceral fat tissue and tibiae were removed and frozen in liquid nitrogen. Before removing the vaginal tract, a vaginal flush was performed.
Caffeine was used as an internal standard.

C/C=C/C/C=C(\C)C(O)CC/C(C)=C/C=C(\C)C(=O)c1c(O)cc([C@H](C)CC/C=C/NC(=O)OC)oc1=O (stereo partly drawn) [CorA, Corallopyronin A]
in vitro minimal inhibitory concentration (MIC) (MRSA): 0.125 µg/mL
CorA in vaginal flush ([1]; 100 mg/kg PO): not found
time initial peak concentrations in tissue are above the MIC ([1]; IP dosing): 2 to 3 h
AUC ([1]; brain, 30 mg/kg IP): 0.05 µg·h/g
AUC ([1]; brain, 60 mg/kg IP): 0.10 µg·h/g
AUC ([1]; brain, 100 mg/kg IP): 0.10 µg·h/g
AUC ([1]; brain, 100 mg/kg SC): 0.24 µg·h/g
time tissue concentration exceeds the in vitro MIC against MRSA ([1]; female, CD-1, mouse, in vivo, sc, 100 mg/kg): more than 9 h
Cmax ([1]; female, CD-1, mouse, thigh muscle, thigh, 30 mg/kg IP): 100 ng/g
Cmax ([1]; female, CD-1, mouse, thigh muscle, thigh, 60 mg/kg IP): 300 ng/g
Cmax ([1]; female, CD-1, mouse, thigh muscle, thigh, 100 mg/kg IP): 700 ng/g
Tmax ([1]; female, CD-1, mouse, 100 mg/kg PO, thigh, heart, kidney, spleen, lung, liver, fat, rectum, pharynx, vaginal tract, skin, tibia, read-out: time of peak concentration in the investigated tissues): 15 to 30 min
Cmax ([1]; female, CD-1, mouse, brain, 30 mg/kg IP): 40 ng/g
Cmax ([1]; female, CD-1, mouse, brain, 60 mg/kg IP): 70 ng/g
Cmax ([1]; female, CD-1, mouse, brain, 100 mg/kg IP): 100 ng/g
Cmax ([1]; female, CD-1, mouse, brain, 100 mg/kg SC): 150 ng/g
Cmax ([1]; female, CD-1, mouse, heart, 30 mg/kg IP): 1100 ng/g
Cmax ([1]; female, CD-1, mouse, heart, 60 mg/kg IP): 1800 ng/g
Cmax ([1]; female, CD-1, mouse, heart, 100 mg/kg IP): 3100 ng/g
Cmax ([1]; female, CD-1, mouse, heart, 100 mg/kg SC): 1480 ng/g
Cmax ([1]; female, CD-1, mouse, kidney, 30 mg/kg IP): 700 ng/g
Cmax ([1]; female, CD-1, mouse, kidney, 60 mg/kg IP): 1200 ng/g
Cmax ([1]; female, CD-1, mouse, kidney, 100 mg/kg IP): 1800 ng/g
Cmax ([1]; female, CD-1, mouse, kidney, 100 mg/kg SC): 1760 ng/g
Cmax ([1]; female, CD-1, mouse, liver, 30 mg/kg IP): 310 ng/g
Cmax ([1]; female, CD-1, mouse, liver, 60 mg/kg IP): 430 ng/g
Cmax ([1]; female, CD-1, mouse, liver, 100 mg/kg IP): 610 ng/g
Cmax ([1]; female, CD-1, mouse, liver, 100 mg/kg SC): 2300 ng/g
Cmax ([1]; female, CD-1, mouse, lung, 30 mg/kg IP): 1500 ng/g
Cmax ([1]; female, CD-1, mouse, lung, 60 mg/kg IP): 3100 ng/g
Cmax ([1]; female, CD-1, mouse, lung, 100 mg/kg IP): 4800 ng/g
Cmax ([1]; female, CD-1, mouse, lung, 100 mg/kg SC): 1270 ng/g
Cmax ([1]; female, CD-1, mouse, spleen, 30 mg/kg IP): 1400 ng/g
Cmax ([1]; female, CD-1, mouse, spleen, 60 mg/kg IP): 2100 ng/g
Cmax ([1]; female, CD-1, mouse, spleen, 100 mg/kg IP): 4900 ng/g
Cmax ([1]; female, CD-1, mouse, spleen, 100 mg/kg SC): 600 ng/g
AUC ([1]; heart, 30 mg/kg IP): 1.08 µg·h/g
AUC ([1]; heart, 60 mg/kg IP): 1.83 µg·h/g
AUC ([1]; heart, 100 mg/kg IP): 2.10 µg·h/g
AUC ([1]; heart, 100 mg/kg SC): 3.53 µg·h/g
AUC ([1]; kidney, 30 mg/kg IP): 0.49 µg·h/g
AUC ([1]; kidney, 60 mg/kg IP): 0.95 µg·h/g
AUC ([1]; kidney, 100 mg/kg IP): 1.01 µg·h/g
AUC ([1]; kidney, 100 mg/kg SC): 5.61 µg·h/g
AUC ([1]; liver, 30 mg/kg IP): 0.40 µg·h/g
AUC ([1]; liver, 60 mg/kg IP): 0.57 µg·h/g
AUC ([1]; liver, 100 mg/kg IP): 0.59 µg·h/g
AUC ([1]; liver, 100 mg/kg SC): 12.44 µg·h/g
AUC ([1]; lung, 30 mg/kg IP): 1.2 µg·h/g
AUC ([1]; lung, 60 mg/kg IP): 3.56 µg·h/g
AUC ([1]; lung, 100 mg/kg IP): 2.67 µg·h/g
AUC ([1]; lung, 100 mg/kg SC): 3.85 µg·h/g
time CorA levels above the MIC ([1]; lung, 100 mg/kg SC): ~ 4 h
time CorA levels exceed the in vitro MIC ([1]; lung, all three doses administered IP (30, 60, 100 mg/kg)): around 3 h
AUC ([1]; spleen, 30 mg/kg IP): 0.77 µg·h/g
AUC ([1]; spleen, 60 mg/kg IP): 1.34 µg·h/g
AUC ([1]; spleen, 100 mg/kg IP): 2.55 µg·h/g
AUC ([1]; spleen, 100 mg/kg SC): 1.4 µg·h/g
AUC ([1]; thigh, 30 mg/kg IP): 0.19 µg·h/g
time CorA levels exceed the MIC ([1]; thigh, 30 mg/kg IP): about one hour
AUC ([1]; thigh, 60 mg/kg IP): 0.49 µg·h/g
time CorA levels above the MIC ([1]; thigh, 60 mg/kg IP): around 3 h
AUC ([1]; thigh, 100 mg/kg IP): 0.60 µg·h/g
time CorA levels above the MIC ([1]; thigh, 100 mg/kg IP): around 3 h
peak concentrations in thigh above the in vitro determined MIC ([1]; thigh, 100 mg/kg IP, MIC 0.125 µg/mL): 3–5 ×
CorA levels in thigh tissue ([1]; thigh, 100 mg/kg SC): no CorA levels were detected
